Reference: paper PMC10112881 (Cell reports, 2023)
pEC50: −log10 of the molar value.

Experiments:
[1] = system: 44 known off-targets and other transporters; assay: Eurofins panel of 44 known off-targets and other transporters
[2] = target: 5-HT6 (Homo sapiens, UniProt P50406); assay: G protein dissociation BRET assay; format: cell-based; details: read-out: EC50 (partial agonism)
[3] = Forced swim test; format: in vivo, C57BL/6J mice; details: 25 h after
[4] = target: 5-HT7a (Homo sapiens, UniProt P34969); assay: cAMP accumulation GloSensor assay; format: cell-based; details: read-out: EC50 (inverse agonism)
Chain of 5-HT7a (P34969 1-445 isoform P34969-2): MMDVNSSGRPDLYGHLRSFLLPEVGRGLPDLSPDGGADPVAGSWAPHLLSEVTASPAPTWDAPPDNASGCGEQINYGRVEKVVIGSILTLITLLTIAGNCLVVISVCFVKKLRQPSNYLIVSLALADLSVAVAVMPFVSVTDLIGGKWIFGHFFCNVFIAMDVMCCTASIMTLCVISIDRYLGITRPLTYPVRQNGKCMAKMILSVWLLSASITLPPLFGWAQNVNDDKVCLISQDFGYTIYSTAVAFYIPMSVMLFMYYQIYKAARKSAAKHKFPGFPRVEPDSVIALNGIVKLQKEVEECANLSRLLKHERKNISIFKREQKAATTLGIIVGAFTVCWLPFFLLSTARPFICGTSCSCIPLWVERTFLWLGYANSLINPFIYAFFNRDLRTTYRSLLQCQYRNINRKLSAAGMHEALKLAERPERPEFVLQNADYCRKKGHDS

[5] = target: 5-HT2C (Homo sapiens, UniProt P28335); format: cell-based
Chain of 5-HT2C (P28335 33-458): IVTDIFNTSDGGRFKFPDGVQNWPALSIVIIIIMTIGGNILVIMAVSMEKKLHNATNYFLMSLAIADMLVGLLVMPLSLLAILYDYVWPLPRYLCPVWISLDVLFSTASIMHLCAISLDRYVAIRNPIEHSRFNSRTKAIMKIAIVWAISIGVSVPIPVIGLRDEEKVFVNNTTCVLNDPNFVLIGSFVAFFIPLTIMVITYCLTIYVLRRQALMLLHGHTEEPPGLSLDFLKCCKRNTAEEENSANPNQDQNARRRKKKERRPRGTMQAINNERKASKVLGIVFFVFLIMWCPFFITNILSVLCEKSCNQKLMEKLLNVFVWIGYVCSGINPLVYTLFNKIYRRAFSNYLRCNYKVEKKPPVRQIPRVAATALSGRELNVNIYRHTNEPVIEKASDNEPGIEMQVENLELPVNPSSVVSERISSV

[6] = target: 5-HT2A (Homo sapiens, UniProt P28223); format: cell-based; details: β-arrestin recruitment, normalized to 5-HT
Chain of 5-HT2A (P28223 whole entry): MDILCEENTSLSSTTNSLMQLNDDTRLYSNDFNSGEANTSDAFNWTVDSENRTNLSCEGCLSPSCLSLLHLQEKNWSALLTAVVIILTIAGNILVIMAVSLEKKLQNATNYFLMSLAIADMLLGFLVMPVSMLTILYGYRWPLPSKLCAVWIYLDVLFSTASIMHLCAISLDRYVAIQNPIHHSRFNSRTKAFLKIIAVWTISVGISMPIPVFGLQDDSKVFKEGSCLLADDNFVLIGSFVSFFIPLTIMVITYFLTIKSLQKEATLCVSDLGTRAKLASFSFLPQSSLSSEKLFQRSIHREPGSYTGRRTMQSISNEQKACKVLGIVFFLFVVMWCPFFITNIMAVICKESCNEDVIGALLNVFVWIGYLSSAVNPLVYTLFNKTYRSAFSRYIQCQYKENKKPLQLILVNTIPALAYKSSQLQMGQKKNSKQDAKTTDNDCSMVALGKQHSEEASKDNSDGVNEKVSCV

[7] = target: β2 (Homo sapiens, UniProt P07550); assay: G protein dissociation BRET assay; format: cell-based; details: read-out: KB (antagonist)
Chain of β2 (P07550 whole entry): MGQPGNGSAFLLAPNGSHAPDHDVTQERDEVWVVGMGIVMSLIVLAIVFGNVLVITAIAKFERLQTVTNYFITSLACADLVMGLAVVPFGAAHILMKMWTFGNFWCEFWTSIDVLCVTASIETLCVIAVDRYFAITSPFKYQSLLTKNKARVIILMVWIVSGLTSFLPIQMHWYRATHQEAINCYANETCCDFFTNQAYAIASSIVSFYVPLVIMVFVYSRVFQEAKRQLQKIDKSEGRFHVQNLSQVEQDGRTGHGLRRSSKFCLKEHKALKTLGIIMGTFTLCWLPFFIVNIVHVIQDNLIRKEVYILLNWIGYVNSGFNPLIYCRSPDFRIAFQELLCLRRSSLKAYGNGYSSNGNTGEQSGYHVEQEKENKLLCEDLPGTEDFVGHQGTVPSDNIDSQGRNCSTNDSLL

[8] = target: α1B (Homo sapiens, UniProt P35368); assay: G protein dissociation BRET assay; format: cell-based; details: read-out: KB (antagonist)
Chain of α1B (P35368 whole entry): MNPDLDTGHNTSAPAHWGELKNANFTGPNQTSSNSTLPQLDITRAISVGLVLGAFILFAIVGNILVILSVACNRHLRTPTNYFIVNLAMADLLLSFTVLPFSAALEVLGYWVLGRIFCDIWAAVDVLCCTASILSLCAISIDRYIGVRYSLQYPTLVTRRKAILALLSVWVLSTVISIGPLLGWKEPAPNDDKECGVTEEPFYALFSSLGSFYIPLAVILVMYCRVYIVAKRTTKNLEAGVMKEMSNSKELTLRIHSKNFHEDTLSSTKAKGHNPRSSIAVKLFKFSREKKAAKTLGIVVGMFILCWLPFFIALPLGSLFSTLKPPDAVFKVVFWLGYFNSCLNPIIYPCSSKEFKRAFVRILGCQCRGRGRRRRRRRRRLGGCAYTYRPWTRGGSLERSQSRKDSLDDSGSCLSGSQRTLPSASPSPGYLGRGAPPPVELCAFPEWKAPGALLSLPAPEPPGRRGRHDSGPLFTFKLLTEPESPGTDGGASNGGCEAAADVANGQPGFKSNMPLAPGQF

[9] = target: 5-HT5A (Homo sapiens, UniProt P47898); assay: G protein dissociation BRET assay; format: cell-based; details: read-out: KB (antagonist), 37°C, 60 minutes
Chain of 5-HT5A (P47898 whole entry): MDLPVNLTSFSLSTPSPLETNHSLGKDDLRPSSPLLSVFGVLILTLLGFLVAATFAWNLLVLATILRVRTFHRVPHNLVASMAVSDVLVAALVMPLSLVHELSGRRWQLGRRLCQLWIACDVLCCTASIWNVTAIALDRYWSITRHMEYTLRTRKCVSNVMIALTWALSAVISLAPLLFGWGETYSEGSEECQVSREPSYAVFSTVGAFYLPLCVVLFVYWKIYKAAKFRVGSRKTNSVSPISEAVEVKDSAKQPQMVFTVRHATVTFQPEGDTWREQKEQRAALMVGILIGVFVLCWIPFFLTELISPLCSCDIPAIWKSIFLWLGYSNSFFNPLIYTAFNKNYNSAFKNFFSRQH

[10] = target: α2B (Homo sapiens, UniProt P18089); assay: G protein dissociation BRET assay; format: cell-based; details: read-out: KB (antagonist)
Chain of α2B (P18089 whole entry): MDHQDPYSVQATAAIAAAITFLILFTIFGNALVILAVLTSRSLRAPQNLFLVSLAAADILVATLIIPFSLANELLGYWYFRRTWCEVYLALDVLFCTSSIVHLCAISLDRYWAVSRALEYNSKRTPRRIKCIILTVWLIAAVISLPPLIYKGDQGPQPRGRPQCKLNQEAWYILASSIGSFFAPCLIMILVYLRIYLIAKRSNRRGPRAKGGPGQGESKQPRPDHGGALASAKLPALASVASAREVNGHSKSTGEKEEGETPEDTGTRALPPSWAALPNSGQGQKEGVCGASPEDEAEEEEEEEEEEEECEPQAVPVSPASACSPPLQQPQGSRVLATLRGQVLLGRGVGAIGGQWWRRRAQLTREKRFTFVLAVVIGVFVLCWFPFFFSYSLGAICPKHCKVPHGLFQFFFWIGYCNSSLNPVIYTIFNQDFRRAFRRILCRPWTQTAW

Chain of 5-HT6 (P50406 whole entry): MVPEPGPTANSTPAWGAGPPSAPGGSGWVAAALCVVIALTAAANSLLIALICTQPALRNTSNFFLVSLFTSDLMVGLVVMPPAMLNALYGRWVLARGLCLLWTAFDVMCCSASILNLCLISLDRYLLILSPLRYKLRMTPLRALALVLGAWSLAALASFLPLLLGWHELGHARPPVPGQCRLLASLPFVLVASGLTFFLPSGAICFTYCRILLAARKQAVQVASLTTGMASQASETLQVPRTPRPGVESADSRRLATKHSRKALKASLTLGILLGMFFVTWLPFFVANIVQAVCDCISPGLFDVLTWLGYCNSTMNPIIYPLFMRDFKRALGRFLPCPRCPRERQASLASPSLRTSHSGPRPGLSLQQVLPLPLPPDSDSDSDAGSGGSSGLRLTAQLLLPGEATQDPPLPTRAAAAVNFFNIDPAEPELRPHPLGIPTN

For CCN(CC)C(=O)[C@@H]1C=C2c3cccc4[nH]c(Br)c(c34)C[C@H]2N(C)C1.CCN(CC)C(=O)[C@@H]1C=C2c3cccc4[nH]c(Br)c(c34)C[C@H]2N(C)C1.O=C(O)C(O)C(O)C(=O)O [2-Br-LSD, (6aR,9R)-2-bromolysergic acid diethylamide (2:1) (+)-tartrate], which “preference for serotonin and dopamine GPCRs over off-targets” value [1] is on record?
Its value is over 100 fold.

And the pEC50 [2]?
The pEC50 was 9.46.

And the decrease in immobility ([3]; females, 1 mg/kg IP)?
The decrease in immobility was 35.18 ± 10.03 s.

And the decrease in immobility ([3]; males, 0.3 mg/kg IP)?
Its decrease in immobility is 20.89 ± 8.249 s.

And the decrease in immobility ([3]; males, 1 mg/kg IP)?
The decrease in immobility was 27.27 ± 8.226 s.

What about the decrease in immobility ([3]; males, 3 mg/kg IP) of the same molecule?
The decrease in immobility was 31.36 ± 8.226 s.

What about the pEC50 [4] of the same molecule?
Its pEC50 is 8.29.

And the β-arrestin2 recruitment agonism [5]?
The β-arrestin2 recruitment agonism was “no detectable β-arrestin2 recruitment agonism”.

What about the EMAX [6] of the same molecule?
Its EMAX is 36.9%.

What about the Kb [7] of the same molecule?
Its Kb is 47 nM.

What about the Kb [8] of the same molecule?
Its Kb is 38 nM.

And the Kb [9]?
Its Kb is 4.14 nM.

What about the Kb [10] of the same molecule?
Its Kb is 79 nM.
